Laboratory results: patent US6355799B1, “Substituted benzene compounds, process for their preparation, and herbicidal and defoliant compositions containing them” (ISK Americas Incorporated, priority 1997, dated 2002)

What was measured:
Type in all cases: in vivo
[1] = test system: redroot pigweed (Amaranthus retroflexus, AMARE); assay: Pre-emerge test, greenhouse herbicide activity screening; details: rating scale 0-100, 14 days after application
Procedure, shortened: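 Rating: 0–100 visual injury, 14 DAA. Application: acetone, 187 l/ha, 15–1000 g ai/ha, flat-fan track sprayer with nozzle 40–45 cm above soil or canopy. Post-emerge runs used 0.25% v/v surfactant on 2–3 leaf plants.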

[2] = test system: ivyleaf morningglory (Ipomoea hederacea, IPOHE); assay: as above; details: rating scale 0-100, 14 days after application
Procedure, shortened: (§1)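 Visual ratings on a 0-100 scale (0 no damage, 100 all plants dead) were taken at 14 days after treatment. Rates of 15-1000 g ai/ha in acetone, 187 l/ha, were sprayed onto soil one day after planting (pre-emerge) or onto 2-3 leaf plants with 0.25% v/v surfactant (post-emerge).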

[3] = test system: johnsongrass (Sorghum halepense, SORHA); assay: as above; details: rating scale 0-100, 14 days after application
Procedure, shortened: as §1

[4] = test system: lambsquarters (Chenopodium album, CHEAL); assay: as above; details: rating scale 0-100, 14 days after application
Procedure, shortened: as §1

[5] = test system: sicklepod (Cassia obtusifolia, CASOB); assay: as above; details: rating scale 0-100, 14 days after application
Procedure, shortened: as §1

[6] = test system: barnyardgrass (Echinochloa crus-galli, ECHCG); assay: as above; details: rating scale 0-100, 14 days after application
Procedure, shortened: as §1

[7] = test system: velvetleaf (Abutilon theophrasti, ABUTH); assay: as above; details: rating scale 0-100, 14 days after application
Procedure, shortened: as §1

[8] = test system: green foxtail (Setaria viridis, SETVI); assay: as above; details: rating scale 0-100, 14 days after application
Procedure, shortened: as §1

[9] = test system: large crabgrass (Digitaria sanguinalis, DIGSA); assay: as above; details: rating scale 0-100, 14 days after application
Procedure, shortened: as §1

[10] = test system: field corn (Zea mays L., var. Dekalb 535, CORN); assay: Post-emerge test, crop safety; details: rating scale 0-100 (0 no damage, 100 complete death), 14 days after application
Procedure, shortened: as §1

[11] = test system: upland rice (Oryza sp., var. Tebonnet, RICE); assay: Post-emerge test, crop safety; details: rating scale 0-100 (0 no damage, 100 complete death), 14 days after application
Procedure, shortened: as §1

[12] = test system: field corn (Zea mays L., var. Dekalb 535, CORN); assay: Pre-emerge test, crop safety; details: rating scale 0-100, 14 days after application
Procedure, shortened: (§2)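 Herbicidal damage is scored 0 (none) to 100 (complete plant death) two weeks after a simulated field spray. Rates span 15–1000 g ai/ha, delivered in acetone at 187 l/ha. For post-emergence treatments, plants have 2–3 leaves and the spray carries 0.25% v/v non-ionic surfactant.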

[13] = test system: upland rice (Oryza sp., var. Tebonnet, RICE); assay: Pre-emerge test, crop safety; details: rating scale 0-100, 14 days after application
Procedure, shortened: as §2

[14] = test system: redroot pigweed (Amaranthus retroflexus, AMARE); assay: Post-emerge test, greenhouse herbicide activity screening; details: rating scale 0-100 (0 no damage, 100 complete death), 14 days after application
Procedure, shortened: (§3)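 Fourteen days after spraying, crop and weed injury was graded visually from 0, no effect, to 100, every plant dead. Test substances were dissolved in acetone and applied at 15–1000 g ai/ha with a flat-fan nozzle. Application was either pre-emergence, one day after sowing, or post-emergence at the 2–3 leaf stage.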

[15] = test system: ivyleaf morningglory (Ipomoea hederacea, IPOHE); assay: as above; details: rating scale 0-100 (0 no damage, 100 complete death), 14 days after application
Procedure, shortened: as §3

[16] = test system: johnsongrass (Sorghum halepense, SORHA); assay: as above; details: rating scale 0-100 (0 no damage, 100 complete death), 14 days after application
Procedure, shortened: as §3

[17] = test system: lambsquarters (Chenopodium album, CHEAL); assay: as above; details: rating scale 0-100 (0 no damage, 100 complete death), 14 days after application
Procedure, shortened: as §3

[18] = test system: common ragweed (Ambrosia artemisizfolia L., AMBEL); assay: as above; details: rating scale 0-100 (0 no damage, 100 complete death), 14 days after application
Procedure, shortened: as §3

[19] = test system: sicklepod (Cassia obtusifolia, CASOB); assay: as above; details: rating scale 0-100 (0 no damage, 100 complete death), 14 days after application
Procedure, shortened: as §3

[20] = test system: barnyardgrass (Echinochloa crus-galli, ECHCG); assay: as above; details: rating scale 0-100 (0 no damage, 100 complete death), 14 days after application
Procedure, shortened: as §3

[21] = test system: velvetleaf (Abutilon theophrasti, ABUTH); assay: as above; details: rating scale 0-100 (0 no damage, 100 complete death), 14 days after application
Procedure, shortened: as §3

[22] = test system: green foxtail (Setaria viridis, SETVI); assay: as above; details: rating scale 0-100 (0 no damage, 100 complete death), 14 days after application
Procedure, shortened: as §3

[23] = test system: large crabgrass (Digitaria sanguinalis, DIGSA); assay: as above; details: rating scale 0-100 (0 no damage, 100 complete death), 14 days after application
Procedure, shortened: as §3

## COc1c(Cl)cc(F)c(-n2c(=O)cc(C(F)(F)F)n(C)c2=O)c1CC(Cl)C(=O)OCC(C)C (single isomer, unassigned) [14-15]
[1]; 63 g ai/ha
  Pre-emerge herbicidal activity, phytotoxicity rating AMARE: 100
[1]; 250 g ai/ha
  Pre-emerge herbicidal activity, phytotoxicity rating AMARE: 100
[2]; 63 g ai/ha
  Pre-emerge herbicidal activity, phytotoxicity rating IPOHE: 0
[2]; 250 g ai/ha
  Pre-emerge herbicidal activity, phytotoxicity rating IPOHE: 20
[3]; 63 g ai/ha
  Pre-emerge herbicidal activity, phytotoxicity rating SORHA: 0
[3]; 250 g ai/ha
  Pre-emerge herbicidal activity, phytotoxicity rating SORHA: 0
[4]; 63 g ai/ha
  Pre-emerge herbicidal activity, phytotoxicity rating CHEAL: 20
[4]; 250 g ai/ha
  Pre-emerge herbicidal activity, phytotoxicity rating CHEAL: 95
[5]; 63 g ai/ha
  Pre-emerge herbicidal activity, phytotoxicity rating CASOB: 0
[5]; 250 g ai/ha
  Pre-emerge herbicidal activity, phytotoxicity rating CASOB: 40
[6]; 63 g ai/ha
  Pre-emerge herbicidal activity, phytotoxicity rating ECHCG: 0
[6]; 250 g ai/ha
  Pre-emerge herbicidal activity, phytotoxicity rating ECHCG: 80
[7]; 63 g ai/ha
  Pre-emerge herbicidal activity, phytotoxicity rating ABUTH: 50
[7]; 250 g ai/ha
  Pre-emerge herbicidal activity, phytotoxicity rating ABUTH: 100
[8]; 63 g ai/ha
  Pre-emerge herbicidal activity, phytotoxicity rating SETVI: 0
[8]; 250 g ai/ha
  Pre-emerge herbicidal activity, phytotoxicity rating SETVI: 30
[9]; 63 g ai/ha
  Pre-emerge herbicidal activity, phytotoxicity rating DIGSA: 70
[9]; 250 g ai/ha
  Pre-emerge herbicidal activity, phytotoxicity rating DIGSA: 100
[10]; Rate 63 g ai/ha
  Post-emerge phytotoxicity rating CORN (crop damage): 20
[10]; Rate 250 g ai/ha
  Post-emerge phytotoxicity rating CORN (crop damage): 60
[11]; Rate 63 g ai/ha
  Post-emerge phytotoxicity rating RICE (crop damage): 0
[11]; Rate 250 g ai/ha
  Post-emerge phytotoxicity rating RICE (crop damage): 0
[12]; 63 g ai/ha
  Pre-emerge phytotoxicity rating, crop damage CORN: 0
[12]; 250 g ai/ha
  Pre-emerge phytotoxicity rating, crop damage CORN: 0
[13]; 63 g ai/ha
  Pre-emerge phytotoxicity rating, crop damage RICE: 0
[13]; 250 g ai/ha
  Pre-emerge phytotoxicity rating, crop damage RICE: 0
[14]; Rate 63 g ai/ha
  Post-emerge Herbicidal Activity, phytotoxicity rating AMARE: 100
[14]; Rate 250 g ai/ha
  Post-emerge Herbicidal Activity, phytotoxicity rating AMARE: 100
[15]; Rate 63 g ai/ha
  Post-emerge Herbicidal Activity, phytotoxicity rating IPOHE: 50
[15]; Rate 250 g ai/ha
  Post-emerge Herbicidal Activity, phytotoxicity rating IPOHE: 90
[16]; Rate 63 g ai/ha
  Post-emerge Herbicidal Activity, phytotoxicity rating SORHA: 50
[16]; Rate 250 g ai/ha
  Post-emerge Herbicidal Activity, phytotoxicity rating SORHA: 40
[17]; Rate 63 g ai/ha
  Post-emerge Herbicidal Activity, phytotoxicity rating CHEAL: 50
[17]; Rate 250 g ai/ha
  Post-emerge Herbicidal Activity, phytotoxicity rating CHEAL: 100
[18]; Rate 63 g ai/ha
  Post-emerge Herbicidal Activity, phytotoxicity rating AMBEL: 20
[18]; Rate 250 g ai/ha
  Post-emerge Herbicidal Activity, phytotoxicity rating AMBEL: 100
[19]; Rate 63 g ai/ha
  Post-emerge Herbicidal Activity, phytotoxicity rating CASOB: 0
[19]; Rate 250 g ai/ha
  Post-emerge Herbicidal Activity, phytotoxicity rating CASOB: 50
[20]; Rate 63 g ai/ha
  Post-emerge Herbicidal Activity, phytotoxicity rating ECHCG: 100
[20]; Rate 250 g ai/ha
  Post-emerge Herbicidal Activity, phytotoxicity rating ECHCG: 100
[21]; Rate 63 g ai/ha
  Post-emerge Herbicidal Activity, phytotoxicity rating ABUTH: 60
[21]; Rate 250 g ai/ha
  Post-emerge Herbicidal Activity, phytotoxicity rating ABUTH: 90
[22]; Rate 63 g ai/ha
  Post-emerge Herbicidal Activity, phytotoxicity rating SETVI: 70
[22]; Rate 250 g ai/ha
  Post-emerge Herbicidal Activity, phytotoxicity rating SETVI: 80
[23]; Rate 63 g ai/ha
  Post-emerge Herbicidal Activity, phytotoxicity rating DIGSA: 95
[23]; Rate 250 g ai/ha
  Post-emerge Herbicidal Activity, phytotoxicity rating DIGSA: 100
